This is an account of results in ChEMBL document CHEMBL1201862, “PubChem BioAssay data set” (2004).

Test systems include SW-620; HCT-116; A549; OVCAR-5; RXF 393; SK-MEL-5; OVCAR-4; SF-268; COLO 205; MDA-N; IGROV-1; HCT-15; K562; CAKI-1; RPMI-8226; PC-3; SK-MEL-28; HOP-62; LOX IMVI; HCC 2998.
Common to all, as to test: inhibition of tumour cell growth, NCI panel, 48 h

Each structure is given as a SMILES string.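 Growth conditions: 96-well plates. Treatment: test compound, 48 hours, 5 concentrations. Analysis: linear interpolation between bracketing concentrations; unreached endpoints set to highest concentration. Here, GI50 denotes the concentration required for 50% inhibition of growth.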 Calls of active or inactive are those of the source. No stated cut-off is given here; in the data, active = GI50 up to about 1.1 µM and inactive = higher.

Turning to `CCc1ncc(CO)n1Cc1cccc2ccccc12`, the GI50 in the assay with SW-620, in the assay on HCT-116, in the assay with A549, in the assay on OVCAR-5, in the assay on RXF 393 and in the assay with SK-MEL-5 was > 100 µM (inactive) in each case. Moreover, the GI50 in the assay on OVCAR-4 is > 100 µM (inactive); with SF-268 it was > 100 µM (inactive); in the assay on COLO 205, > 100 µM (inactive); in the assay on MDA-N, > 100 µM (inactive); in the assay on IGROV-1 it was > 100 µM (inactive); with HCT-15 it was > 100 µM. In addition, the GI50 in the assay with K562 is > 100 µM (inactive); with CAKI-1, > 100 µM (inactive); in the assay with RPMI-8226, 73.3 µM (inactive); with PC-3 it was > 100 µM (inactive); in the assay on SK-MEL-28, > 100 µM (inactive); with HOP-62 it was > 100 µM (inactive).
As for `CC(=O)c1sc2c(c1OC(=O)c1ccc(Cl)cc1)c(=O)n(-c1ccccc1)c(=S)n2-c1ccccc1`, the GI50 was 12.7 µM (inactive) with SW-620; 9.08 µM (inactive) with HCT-116; 25.4 µM (inactive) with A549; 2.77 µM (inactive) in the assay with OVCAR-5; 2.22 µM (inactive) in the assay on RXF 393; 2 µM (inactive) with SK-MEL-5. The GI50 with OVCAR-4 was 22.3 µM (inactive); in the assay with SF-268, 4.56 µM (inactive); in the assay with COLO 205 it was 3.53 µM (inactive); in the assay with LOX IMVI it was 2.32 µM (inactive); with IGROV-1 it was 8.89 µM (inactive); with HCT-15, 9.18 µM. In addition, the GI50 is 9.04 µM (inactive) in the assay with K562; 3.39 µM (inactive) in the assay with CAKI-1; 1.21 µM (inactive) in the assay on RPMI-8226; 3.56 µM (inactive) in the assay on PC-3; 2.79 µM (inactive) with SK-MEL-28; 3.85 µM (inactive) in the assay with HOP-62. In the assay with HCC 2998, the GI50 was 19.1 µM (inactive).
With `Cc1ccc(Sc2ccc(C)cc2[N+](=O)[O-])c([N+](=O)[O-])c1`, the GI50 with SW-620, in the assay on HCT-116, with A549, with OVCAR-5, in the assay on RXF 393 and in the assay on SK-MEL-5 was > 100 µM (inactive) throughout. The GI50 in the assay on OVCAR-4 is > 100 µM (inactive); with SF-268, > 100 µM (inactive); in the assay with COLO 205 it was > 100 µM (inactive); in the assay with LOX IMVI it was > 100 µM (inactive); in the assay on IGROV-1 it was > 100 µM (inactive); in the assay with HCT-15 it was > 100 µM. The GI50 in the assay on K562 was > 100 µM (inactive); in the assay on CAKI-1, > 10 µM (inactive); in the assay on RPMI-8226, > 100 µM (inactive); in the assay with SK-MEL-28 it was > 100 µM (inactive); in the assay with HOP-62, > 100 µM (inactive); in the assay on HCC 2998, > 100 µM (inactive).
For `CC1=NN(c2cccc(Cl)c2)C(=N/c2nc3ccccc3s2)/C1=C\C=C\c1ccccc1`, the GI50 with SW-620 was > 100 µM (inactive); in the assay on HCT-116, 28.2 µM (inactive); in the assay on OVCAR-5 it was 46.5 µM (inactive); in the assay with RXF 393, 51.4 µM (inactive); with SK-MEL-5, 20.6 µM (inactive); in the assay on OVCAR-4, 45.1 µM (inactive). Further, the GI50 was 35.8 µM (inactive) with SF-268; 37.2 µM (inactive) in the assay on MDA-N; 32.2 µM (inactive) in the assay on LOX IMVI; 20 µM (inactive) in the assay on IGROV-1; 32.2 µM with HCT-15; 9.23 µM (inactive) in the assay on K562. Besides, the GI50 in the assay with CAKI-1 was 28.4 µM (inactive); with RPMI-8226, 18.9 µM (inactive); with SK-MEL-28, 29.3 µM (inactive); in the assay on HOP-62, 30.8 µM (inactive).
With `Cc1ccc(N/C(Sc2ccccc2)=C(/C(Cl)=C(Cl)Cl)[N+](=O)[O-])c(C)c1`, the GI50 in the assay with SW-620 was 19.7 µM (inactive); with HCT-116 it was 17.1 µM (inactive); with A549, 33.8 µM (inactive); in the assay with OVCAR-5 it was 17.8 µM (inactive); with SK-MEL-5, 25.1 µM (inactive); with OVCAR-4, 23.7 µM (inactive). Moreover, the GI50 in the assay on SF-268 was 14 µM (inactive); with COLO 205 it was 20.9 µM (inactive); with LOX IMVI, 14.5 µM (inactive); with IGROV-1 it was 19.5 µM (inactive); in the assay on HCT-15, 16.8 µM; with K562, 18 µM (inactive). For the same compound, the GI50 in the assay with CAKI-1 was 17 µM (inactive); in the assay with RPMI-8226, 20.3 µM (inactive); in the assay with PC-3 it was 17.7 µM (inactive); in the assay on SK-MEL-28 it was 18.5 µM (inactive); in the assay with HOP-62, 23.8 µM (inactive); in the assay with HCC 2998, 17.7 µM (inactive).
On to `O=C(/C=C/c1ccc(O)c([N+](=O)[O-])c1)CC(=O)/C=C/c1ccc(O)c([N+](=O)[O-])c1`, for which the GI50 was 37.1 µM (inactive) with SW-620; 41.6 µM (inactive) in the assay with HCT-116; 53.7 µM (inactive) in the assay on A549; 44.9 µM (inactive) in the assay on OVCAR-5; 44.4 µM (inactive) in the assay with RXF 393; 49.7 µM (inactive) in the assay with SK-MEL-5. Besides, the GI50 in the assay on OVCAR-4 is 79.3 µM (inactive); in the assay on SF-268 it was 54.6 µM (inactive); in the assay with COLO 205, 47.4 µM (inactive); in the assay on MDA-N, 86.5 µM (inactive); with LOX IMVI, 14.4 µM (inactive); in the assay on IGROV-1, 24.9 µM (inactive). The GI50 is 38.5 µM in the assay with HCT-15; 14.4 µM (inactive) with RPMI-8226; 56.4 µM (inactive) in the assay on PC-3; 33.9 µM (inactive) with SK-MEL-28; 48.9 µM (inactive) in the assay on HOP-62.
Regarding `Cn1c(=O)n2n(c1=O)[C@@H](c1ccccc1)[C@H]2c1ccccc1`, the GI50 in the assay with SW-620, in the assay on HCT-116, in the assay on A549, in the assay with OVCAR-5, with RXF 393 and in the assay on SK-MEL-5 was > 100 µM (inactive) each time. Also, the GI50 is > 100 µM (inactive) with OVCAR-4; > 100 µM (inactive) in the assay on COLO 205; > 100 µM (inactive) in the assay with LOX IMVI; > 100 µM (inactive) in the assay with IGROV-1; > 100 µM in the assay on HCT-15; 64.3 µM (inactive) in the assay on K562. Moreover, the GI50 in the assay on CAKI-1, in the assay on PC-3, in the assay on SK-MEL-28, in the assay with HOP-62 and with HCC 2998 was > 100 µM (inactive) throughout.
For the compound `Cc1cc(C)c2c(n1)S(=O)(=O)N(CCCN1CCN(c3cccc(Cl)c3)CC1)C(C(=O)c1ccccc1)=C2O`, the GI50 with SW-620 was 31.8 µM (inactive); with HCT-116, 24.2 µM (inactive); with A549, 30.4 µM (inactive); in the assay with OVCAR-5, 45 µM (inactive); with SK-MEL-5 it was 21.6 µM (inactive); with OVCAR-4 it was 24.7 µM (inactive). In addition, the GI50 was 39 µM (inactive) in the assay on SF-268; 18.7 µM (inactive) with COLO 205; 25.9 µM (inactive) with MDA-N; 6.01 µM (inactive) in the assay on LOX IMVI; 40.3 µM (inactive) in the assay with IGROV-1; 24.8 µM with HCT-15. Further, the GI50 in the assay with K562 is 35.6 µM (inactive); with CAKI-1, 12.9 µM (inactive); in the assay with PC-3, 30.8 µM (inactive); in the assay with SK-MEL-28, 44.4 µM (inactive); in the assay on HOP-62, 36.6 µM (inactive).
Regarding `CCOP(=O)(OCC)/C(C#N)=C/c1cnc[nH]1`, the GI50 with SW-620, in the assay with HCT-116, in the assay with A549, in the assay with OVCAR-5, with RXF 393 and with SK-MEL-5 was > 100 µM (inactive) each time. In addition, the GI50 was > 100 µM (inactive) in the assay with OVCAR-4; > 100 µM (inactive) with SF-268; > 100 µM (inactive) in the assay on COLO 205; > 100 µM (inactive) with LOX IMVI; > 100 µM (inactive) in the assay on IGROV-1; > 100 µM in the assay with HCT-15. Further, the GI50 in the assay on K562, with CAKI-1, in the assay with RPMI-8226, in the assay with PC-3, in the assay with SK-MEL-28 and in the assay with HOP-62 was > 100 µM (inactive) each time. Moreover, the GI50 in the assay on HCC 2998 was > 100 µM (inactive).
Turning to `O=C(O)CCCC(=O)Nn1c(Cc2ccc(Cl)cc2)n[nH]c1=O`, the GI50 with SW-620, in the assay on HCT-116, in the assay with A549, with OVCAR-5, with RXF 393 and in the assay on SK-MEL-5 was > 100 µM (inactive) in each case. Besides, the GI50 in the assay with OVCAR-4, with SF-268, in the assay with COLO 205, in the assay with MDA-N, with LOX IMVI and in the assay with IGROV-1 was > 100 µM (inactive) in each case. For the same compound, the GI50 was > 100 µM in the assay with HCT-15; > 100 µM (inactive) with K562; > 100 µM (inactive) in the assay on CAKI-1; > 100 µM (inactive) in the assay with RPMI-8226; > 100 µM (inactive) with PC-3; > 100 µM (inactive) with SK-MEL-28. In the assay on HOP-62, the GI50 was > 100 µM (inactive).
With `O=C1c2ccccc2-n2c1nc1ccc([N+](=O)[O-])cc1c2=O`, the GI50 in the assay with SW-620 was 45.1 µM (inactive); in the assay on HCT-116, 27.1 µM (inactive); in the assay on A549 it was > 100 µM (inactive); in the assay on OVCAR-5, > 100 µM (inactive); in the assay on RXF 393, 60.4 µM (inactive); in the assay with SK-MEL-5 it was 95.9 µM (inactive). Moreover, the GI50 in the assay on OVCAR-4 was > 10 µM (inactive); with SF-268, 26.4 µM (inactive); with COLO 205, > 100 µM (inactive); in the assay with LOX IMVI, 22.5 µM (inactive); with IGROV-1, 53.7 µM (inactive); in the assay on HCT-15, 29.3 µM. Also, the GI50 with K562 is 30.1 µM (inactive); in the assay with CAKI-1 it was 20.2 µM (inactive); with RPMI-8226 it was 25.2 µM (inactive); with PC-3, > 100 µM (inactive); in the assay with SK-MEL-28, 55.1 µM (inactive); in the assay with HOP-62 it was 30.6 µM (inactive). Besides, the GI50 in the assay on HCC 2998 was > 100 µM (inactive).
